Results: patent US12012396B2, “HDAC inhibitor solid state forms” (Viracta Subsidiary, Inc., priority 2020, dated 2024)
Entries after “also recorded” stand apart in the source; their conditions may differ.

Assays:
Assay type in all cases: physicochemical
[1] = Thermodynamic aqueous solubility; conditions: water, after 24 hours equilibration
Experimental: Aqueous solubility was determined by suspending sufficient compound in 0.5 ml deionized water to give a maximum final concentration of 40 mg/mi of the parent free-form of the compound. The suspension was equilibrated at 25° C., on a Heidolph plate shaker set to 750 rpm for 24 hours. After equilibration, the appearance was noted and the pH of the saturated solution was measured. Samples forming suspensions were centrifuged for 4 min at 13,500 rpm. Samples were then filtered through a glass fiber C filter (particle retention 1.2 μm), before dilution with H2O as appropriate.
Quantitation was by HPLC (see Table 2 for parameters) with reference to a standard solution of approximately 0.15 mg/ml in DMSO. Different volumes of the standard, diluted and undiluted sample solutions were injected. The solubility was calculated using the peak areas determined by integration of the peak found at the same retention time as the principal peak in the standard injection. Analysis was performed on an AgilentHPl 100/Infinity II 1260 series system equipped with a diode array detector and using OpenLAB software.

[2] = Static storage stability at elevated temperature/humidity (XRPD, HPLC purity)
Experimental: XRPD diffractograms were collected on a Bruker D8 diffractometer using Cu Kα, radiation (40 kV, 40 mA) and a 0-20 goniometer fitted with a Ge monochromator. The incident beam passes through a 2.0 mm divergence slit followed by a 0.2 mm anti-scatter slit and knife edge. The diffracted beam passes through an 8.0 mm receiving slit with 2.5° Soller slits followed by the Lynxeye Detector. The software used for data collection and analysis was Diffrac Plus XRD Commander and Diffrac Plus EVA respectively.
XRPD diffractograms were collected on a PANalytical Empyrean diffractometer using Cu Kα, radiation (45 kV, 40 mA) in transmission geometry. A 0.5° slit, 4 mm mask and 0.04 rad Soller slits with a focusing mirror were used on the incident beam. A PIXcel3D detector, placed on the diffracted beam, was fitted with a receiving slit and 0.04 rad Soller slits. The software used for data collection was X'Pert Data Collector using X'Pert Operator Interface. The data were analyzed and presented using Diffrac Plus EVA or HighScore Plus.
Purity analysis was performed on an AgilentHP1100/Infinity 111260 series system equipped with a diode array detector and using OpenLAB software.

[3] = Gravimetric Vapour Sorption (GVS)
Experimental: Sorption isotherms were obtained using a SMS DVS Intrinsic moisture sorption analyser, controlled by DVS Intrinsic Control software. The sample temperature was maintained at 25° C. by the instrument controls. The humidity was controlled by mixing streams of dry and wet nitrogen, with a total flow rate of 200 ml/min. The relative humidity was measured by a calibrated Rotronic probe (dynamic range of 1.0-100% RH), located near the sample. The weight change, (mass relaxation) of the sample as a function of % RH was constantly monitored by a microbalance (accuracy ±0.005 mg). Typically, 20-30 mg of sample was placed in a tared mesh stainless steel basket under ambient conditions. The sample was loaded and unloaded at 40% RH and 25° C. (typical room conditions). A moisture sorption isotherm was performed as outlined below (2 scans per complete cycle). The standard isotherm was performed at 25° C. at 10% RH intervals over a 0-90% RH range. Typically, a double cycle (4 scans) was carried out. Data analysis was carried out within Microsoft Excel using the DVS Analysis Suite. [table]

[4] = physchem; conditions: thermodynamic from solid
Text: There was insufficient residue to characterize these further.

[5] = Competitive slurries of anhydrous and hydrated forms in different water activity
Experimental: Competitive slurries of the anhydrous and hydrated forms in different water activity at 50° C. and 5° C. were used to determine the thermodynamic stability relationships.

[6] = 7 days / 1 week at 25° C./97% RH
[7] = 7 days / 1 week at 40° C./75% RH

O=C(NO)c1cnc(N2C[C@@H]3[C@H](C2)[C@H]3NCc2ccc3cc(F)ccc3n2)nc1 [Mesylate Form 1, N-hydroxy 2-{6-[(6-fluoro-quinolin-2-ylmethyl)-amino]-3-aza-bicyclo[3.1.0]hex-3-yl}pyrimidine-5-carboxamide]
pH of saturated solution [1]: (pH = 3.2)
Purity after static storage ([2]; 14 weeks at 25° C./97% RH): 93.5%
Solid form by XRPD after static storage ([2]; 14 weeks at 25° C./97% RH): Mesylate Form 1
Purity after static storage ([2]; 14 weeks at 40° C./75% RH): Form 2 (94.7% purity)
HPLC purity after static storage [2, 6]: no significant drop in purity
Solid form by XRPD after static storage [2, 6]: unchanged; also recorded: No change, Mesylate Form 1
HPLC purity after static storage [2, 7]: no significant drop in purity
Solid form by XRPD after static storage [2, 7]: unchanged; also recorded: No change, Mesylate Form 1
Hygroscopicity by GVS ([3]; 25° C.): RH: Slightly hygroscopic.
XRPD post-GVS ([3]; residue after GVS): no change; also recorded: XRPD remains unchanged
solubility thermodynamic ([4]; fassgf or other biorelevant, Thermodynamic solubility in FaSSGF): 21000 µg/mL
solubility thermodynamic ([4]; fassif, Thermodynamic solubility in FaSSIF): 1900 µg/mL
solubility thermodynamic ([4]; fessif, Thermodynamic solubility in FeSSIF): 340 µg/mL
Water activity up to which the form was the most stable ([5]; competitive slurries at 5° C.): ≥ 0.3 aw
Water activity up to which the form was the most stable ([5]; competitive slurries at 50° C.): 0.6 aw
